Assays:
Experiment in all cases: cell viability (% survival relative to DMSO control, bortezomib = 0%); higher = less cytotoxic
Settings in all cases: 72 h
HEL = system: HEL
Summary of the method: (§1)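 Percent survival figures are means of duplicate wells. They were obtained by CellTiter-Glo luminescence after 10 AML and 5 CML cell lines spent 72 h at 37 °C with 5% CO2 in 384-well plates with compounds at 1, 10, 100, 1000 or 10000 nM. Vehicle was set to 100% and a 10 µM positive control to 0%.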

KCL-22 = system: KCL-22
Summary of the method: as §1

LAMA-84 = system: LAMA-84
Summary of the method: as §1

NOMO-1 = system: NOMO-1
Summary of the method: as §1

Structure (SMILES)	cell viability (HEL; 1 nM) [%]	cell viability (HEL; 10 nM) [%]	cell viability (HEL; 100 nM) [%]	cell viability (HEL; 1000 nM) [%]	cell viability (HEL; 10000 nM) [%]	cell viability (KCL-22; 1 nM) [%]	cell viability (KCL-22; 10 nM) [%]	cell viability (KCL-22; 100 nM) [%]	cell viability (KCL-22; 1000 nM) [%]	cell viability (KCL-22; 10000 nM) [%]	cell viability (LAMA-84; 1 nM) [%]	cell viability (LAMA-84; 10 nM) [%]	cell viability (LAMA-84; 100 nM) [%]	cell viability (LAMA-84; 1000 nM) [%]	cell viability (LAMA-84; 10000 nM) [%]	cell viability (NOMO-1; 1 nM) [%]	cell viability (NOMO-1; 10 nM) [%]	cell viability (NOMO-1; 100 nM) [%]	cell viability (NOMO-1; 1000 nM) [%]	cell viability (NOMO-1; 10000 nM) [%]
COc1cc2c(NC3CCN(C)CC3)nc(N3CCCN(C)CC3)nc2cc1OCCCN(C)C [UNC0224]	84.8	114	106	98.3	88.6	98.2	134	97.6	94.9	90.7	91.1	106	96.5	95.9	95.8	103	111	98.4	95.2	90.4
CN(C)c1nc(O)c2[nH]cnc2n1 [2-Dimethylamino-6-hydroxypurine]	105	85.3	114	106	84.8	98.2	81.3	106	99	87.1	101	104	97.7	99.3	103	101	95.9	108	102	105
O=C(O)c1cc2sccc2[nH]1 [4H-thieno[3,2-b]pyrrole-5-carboxylic acid]	120	106	97.5	93.5	108	90.3	104	84.7	101	99.8	101	99.3	110	95.4	105	105	97.8	98.3	106	110
C1CCC(C(CC2CCCCN2)C2CCCCC2)CC1.O=C(O)/C=C\C(=O)O (stereo not drawn) [Perhexiline]	108	82.7	108	91.3	14.1	92	79.3	94.3	101	1.14	97.7	89.1	98	97.7	12.3	91.6	82.6	88.7	94.9	25.9
O=C1Oc2ccccc2C(=O)C1CC1C(=O)Oc2ccccc2C1=O (stereo not drawn) [Dicumarol]	109	102	92	101	107	96.6	97.3	107	107	102	97.3	107	95.5	103	105	99.4	101	98.8	109	96.3
CCOC(=O)N1c2ccc(C(F)(F)F)cc2[C@@H](N(Cc2cc(C(F)(F)F)cc(C(F)(F)F)c2)C(=O)OC)C[C@H]1CC [Torcetrapib]	102	96.9	134	103	109	105	107	126	98.3	86.8	116	103	110	95.6	110	103	99.4	102	99.1	99
Nc1ccn([C@@H]2O[C@H](CO)[C@@H](O)[C@@H]2O)c(=O)n1 [Cytarabine]	104	95.2	19.6	-0.409	1.24	108	91.6	26.6	14.2	9.51	93	80.3	38.5	12.9	5	107	105	89.6	78.1	9.44
CC(C(=O)O)C(=O)O [Methylmalonate]	87.5	100	109	81.5	95.3	91.7	100	112	88.3	93.6	89.2	101	106	98.2	90.3	95.4	94.6	97.2	94	96.1
CC(C)C[C@H](NC(=O)[C@@H](O)[C@H](N)Cc1ccccc1)C(=O)O [Ubenimex]	107	106	–	95.4	106	118	120	–	89.2	95.2	115	101	103	101	101	105	105	94.8	95.5	100
Cc1noc2c1-c1ccccc1C(c1ccc(Cl)cc1)=N[C@H]2CC(N)=O [CPI-0610]	103	98.5	114	74.5	18.5	123	94.6	91.3	49	27.7	107	92.3	98.4	67.2	33.6	102	96.3	79	33.6	11.7
O=C(c1ccc(OCCN2CCCCC2)cc1)c1c(-c2ccc(O)cc2)sc2cc(O)ccc12 [Raloxifene]	90.2	97.7	96.3	98.4	87.4	93.9	92.7	100	94.5	75.8	106	102	94.9	95.5	87.9	100	95.8	99.3	100	86.5
C=CCc1ccc2c(c1O)C(=O)c1ccccc1C2=O [R162]	104	101	103	106	110	100	98.3	101	96.6	96.7	104	97.2	94.7	103	88.7	99	92.1	96.2	105	100
NC(=O)c1ncn([C@@H]2O[C@H](CO)[C@@H](O)[C@H]2O)n1 [Ribavirin]	92.5	104	111	113	112	72.9	104	114	107	103	84.9	98.2	101	110	89.8	99	102	103	106	103
O=C(O)CC[C@H](NC(=O)c1ccc([N+](=O)[O-])cc1)C(=O)O [(S)-2-(4-Nitrobenzamido)pentanedioic acid]	89.9	107	94	96.3	90.4	93.4	98.1	107	95.5	90.8	98.8	77.2	99.6	103	100	92.4	95	99.6	105	95.6

— the supplement of paper PMC8671470
